Source: the supplement of paper PMC4862054
Several values for one entry are separate records, joined by “and”; a condition that tells them apart may be missing. Equal entries are not always repeated.

Tests used:
HDQ-P1 [1] = details: 72 h
In short: (§1)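 Plates of 384 wells holding compound in 5 µl medium received breast cancer cell lines in 20 µl suspension and were incubated 72 h. CellTiter-Blue (2.5 µl, 2 h, 37 °C) was used for viability, read at 560/590 nm, and every plate was normalised to vehicle and a positive kill control and assessed by Z'-factor. The EC50 derives from a percent-inhibition dose-response curve fit censored at the highest concentration, leaving out rows whose drug sensitivity score was zero.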

CAL-85-1 [2] = details: 72 h
In short: as §1

CAL-148 [3] = details: 72 h
In short: as §1

CAL-51 [4] = details: 72 h
In short: as §1

DU-4475 [5] = details: 72 h
In short: as §1

MFM-223 [6] = details: 72 h
Method: (§2)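 Drug sensitivity and resistance testing (DSRT) of breast cancer cell lines in 384-well plates, 5 concentrations in 10-fold dilutions over a compound-specific 10,000-fold range. After 72 h, cytotoxicity was read by CellTox Green fluorescence and viability by CellTiter-Glo luminescence (multiplexed), normalised to DMSO and benzethonium chloride controls. EC50 is the inflection point of the fitted dose-response curve (bottom asymptote free, so it can be relative for partial curves) and is censored at the highest tested concentration. Rows with DSS 0 (no meaningful response) were excluded.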

BT-549 [7] = details: 72 h
Method: as §2

HDQ-P1 [8] = details: 72 h; remark: listed apart in the source
In short: (§3)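 Two sequential readouts followed a 72 h incubation of breast cancer cell lines with compound at 5 concentrations in 10-fold steps over a compound-specific 10,000-fold range: CellTox Green fluorescence (485/520 nm) for cell death, then CellTiter-Glo luminescence, after 10 min at room temperature, for viability. Each plate was normalised to 0.1 % DMSO and a positive kill control. Dose-response curves were fitted for EC50, censored at the top concentration.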

HCC1143 [9] = details: 72 h
In short: as §3

MFM-223 [10] = details: 72 h; remark: listed apart in the source
In short: as §3

CAL-148 [11] = details: 72 h; remark: listed apart in the source
In short: as §3

DU-4475 [12] = details: 72 h; remark: listed apart in the source
In short: as §3

SK-BR-3 = details: 72 h
In short: as §1

CAL-120 = details: 72 h
In short: as §1

HCC1143 [13] = details: 72 h; remark: listed apart in the source
In short: as §1

BT-474 [14] = details: 72 h
In short: as §1

Hs578T [15] = details: 72 h
In short: as §1

MFM-223 [16] = details: 72 h; remark: listed apart in the source
In short: as §1

HCC1599 [17] = details: 72 h
In short: as §1

HCC1937 [18] = details: 72 h
In short: as §1

MDA-MB-231 [19] = details: 72 h
In short: as §1

BT-549 [20] = details: 72 h; remark: listed apart in the source
In short: as §1

BT-474 [21] = assay: normalised viability (% of control), CellTiter-Blue; higher = more viable cells (about 100 = DMSO control); details: incubation time: 72 h
In short: (§4)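 Breast cancer cell lines in 20 µl suspension were seeded onto 384-well plates pre-loaded with compound dissolved in 5 µl medium, then incubated 72 h. CellTiter-Blue reagent (2.5 µl) was added for 2 h at 37 °C and fluorescence read at 560/590 nm. Each plate was normalised to vehicle (100) and a positive kill control (0), with Z'-factor quality control. The value is normalised viability at one listed concentration of the series.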

MDA-MB-453 = details: 72 h
Method: as §2

HDQ-P1 [22] = details: 72 h; remark: listed apart in the source
Method: as §2

CAL-85-1 [23] = details: 72 h; remark: listed apart in the source
Method: as §2

MDA-MB-436 [24] = details: 72 h
Method: as §2

BT-474 [25] = details: 72 h; remark: listed apart in the source
Method: as §2

MDA-MB-468 [26] = details: 72 h
Method: as §2

MCF-10A = details: 72 h
Method: as §2

CAL-51 [27] = details: 72 h; remark: listed apart in the source
Method: as §2

HCC1937 [28] = details: 72 h; remark: listed apart in the source
Method: as §2

MDA-MB-231 [29] = details: 72 h; remark: listed apart in the source
Method: as §2

HCC1599 [30] = details: 72 h; remark: listed apart in the source
In short: as §3

MDA-MB-436 [31] = details: 72 h; remark: listed apart in the source
In short: as §1

MDA-MB-468 [32] = details: 72 h; remark: listed apart in the source
In short: as §1

DU-4475 [33] = assay: normalised viability (% of control), CellTiter-Blue; higher = more viable cells (about 100 = DMSO control); details: incubation time: 72 h
In short: as §4

Hs578T [34] = details: 72 h; remark: listed apart in the source
Method: as §2

EC50, CellTiter-Blue viability (SK-BR-3) | EC50, CellTiter-Blue viability (HCC1143 [13]) | EC50, CellTiter-Blue viability (BT-474 [14]) | EC50, CellTiter-Blue viability (HCC1937 [18]) | EC50, CellTiter-Blue viability (MDA-MB-231 [19]) | EC50, CellTiter-Blue viability (BT-549 [20]) | SMILES | EC50, CellTiter-Blue viability (HDQ-P1 [1]) | EC50, CellTiter-Blue viability (CAL-85-1 [2]) | EC50, CellTiter-Blue viability (CAL-148 [3]) | EC50, CellTiter-Blue viability (CAL-51 [4]) | EC50, CellTiter-Blue viability (DU-4475 [5]) | EC50, CellTox Green (MFM-223 [6]) | EC50, CellTox Green (BT-549 [7]) | EC50, CellTiter-Glo (HDQ-P1 [8]) | EC50, CellTiter-Glo (MFM-223 [10]) | EC50, CellTiter-Glo (CAL-148 [11]) | EC50, CellTiter-Glo (DU-4475 [12]) | EC50, CellTiter-Blue viability (CAL-120) | EC50, CellTiter-Blue viability (Hs578T [15]) | EC50, CellTiter-Blue viability (MFM-223 [16]) | also measured
0.945 nM | 0.14 nM | 0.289 nM | 2.95 nM | 26.9 nM | 0.381 nM | CO[C@H]1C[C@@H]2CC[C@@H](C)[C@@](O)(O2)C(=O)C(=O)N2CCCC[C@H]2C(=O)O[C@H]([C@H](C)C[C@@H]2CC[C@@H](OCCO)[C@H](OC)C2)CC(=O)[C@H](C)/C=C(\C)[C@@H](O)[C@@H](OC)C(=O)[C@H](C)C[C@H](C)/C=C/C=C/C=C/1C [Everolimus] | 0.35 nM | 0.219 nM | 0.675 nM | 1.14 nM | 2.34 nM | 8.31 nM | > 100 nM | 5.68 nM | 0.29 nM | 0.38 nM | 1.24 nM | 0.304 nM | 0.13 nM | 0.27 nM | EC50, CellTiter-Glo (HCC1143 [9]): 0.39 nM; EC50, CellTiter-Blue viability (HCC1599 [17]): 11.8 nM; normalised viability (BT-474 [21]; 100 nM): 65.9% and 57.5%
3870 nM | – | 3940 nM | 2960 nM | 2140 nM | 2220 nM | CCCCCCCCc1ccc(CCC(N)(CO)CO)cc1 [Fingolimod] | 5350 nM | 5290 nM | – | – | – | > 10000 nM | 8700 nM | 6870 nM | 6920 nM | 9190 nM | – | 2380 nM | 3440 nM | 4430 nM | EC50, CellTox Green (MDA-MB-453): 7630 nM; EC50, CellTox Green (HDQ-P1 [22]): 7660 nM; EC50, CellTox Green (CAL-85-1 [23]): 2040 nM; EC50, CellTox Green (MDA-MB-436 [24]): 8120 nM; EC50, CellTox Green (BT-474 [25]): 3460 nM; EC50, CellTox Green (MDA-MB-468 [26]): 2510 nM; EC50, CellTox Green (MCF-10A): 1110 nM; EC50, CellTox Green (CAL-51 [27]): 7860 nM; EC50, CellTox Green (HCC1937 [28]): 320 nM; EC50, CellTox Green (MDA-MB-231 [29]): 2650 nM; EC50, CellTiter-Glo (HCC1599 [30]): 9540 nM; EC50, CellTiter-Blue viability (MDA-MB-436 [31]): 1780 nM; EC50, CellTiter-Blue viability (MDA-MB-468 [32]): 3550 nM; normalised viability (BT-474 [21]; 1000 nM): 113%; normalised viability (DU-4475 [33]; 30 nM): 119%
26.4 nM | 15.2 nM | 21.7 nM | 6.87 nM | 12.9 nM | 12.8 nM | Cn1c(=O)n(-c2ccc(C(C)(C)C#N)cc2)c2c3cc(-c4cnc5ccccc5c4)ccc3ncc21 [NVP-BEZ235] | 10.8 nM | 12.6 nM | 17.6 nM | 10.1 nM | 54 nM | – | – | – | – | – | – | 10.1 nM | 8.08 nM | 7.73 nM | EC50, CellTiter-Blue viability (MDA-MB-436 [31]): 52.5 nM; EC50, CellTiter-Blue viability (MDA-MB-468 [32]): 27.1 nM; EC50, CellTiter-Blue viability (HCC1599 [17]): 20.8 nM; normalised viability (BT-474 [21]; 100 nM): 42.9%; normalised viability (DU-4475 [33]; 3 nM): 107%

Further lines, the compound ahead of its results:

SMILES | EC50, CellTiter-Blue viability (SK-BR-3) | EC50, CellTiter-Blue viability (HCC1143 [13]) | EC50, CellTiter-Blue viability (BT-474 [14]) | EC50, CellTiter-Blue viability (HCC1937 [18]) | EC50, CellTiter-Blue viability (MDA-MB-231 [19]) | EC50, CellTiter-Blue viability (BT-549 [20]) | EC50, CellTiter-Blue viability (HDQ-P1 [1]) | EC50, CellTiter-Blue viability (CAL-85-1 [2]) | EC50, CellTiter-Blue viability (CAL-148 [3]) | EC50, CellTiter-Blue viability (CAL-51 [4]) | EC50, CellTiter-Blue viability (DU-4475 [5]) | EC50, CellTox Green (MFM-223 [6]) | EC50, CellTox Green (BT-549 [7]) | EC50, CellTiter-Glo (HDQ-P1 [8]) | EC50, CellTiter-Glo (MFM-223 [10]) | EC50, CellTiter-Glo (CAL-148 [11]) | EC50, CellTiter-Glo (DU-4475 [12]) | EC50, CellTiter-Blue viability (CAL-120) | EC50, CellTiter-Blue viability (Hs578T [15]) | EC50, CellTiter-Blue viability (MFM-223 [16]) | also measured
Cc1cc2c(C(C)C)c(O)c(O)c(C=O)c2c(O)c1-c1c(C)cc2c(C(C)C)c(O)c(O)c(C=O)c2c1O [Gossypol] | – | – | – | – | – | – | – | – | – | – | – | – | – | – | – | – | – | – | – | – | normalised viability (BT-474 [21]; 10000 nM): 21.5%; normalised viability (DU-4475 [33]; 300 nM): 93.9%
Cc1ccc(NC(=O)c2ccc(CN3CCN(C)CC3)cc2)cc1Nc1nccc(-c2cccnc2)n1 [Imatinib] | – | – | – | – | – | – | – | – | – | – | – | – | – | – | – | – | – | – | – | – | EC50, CellTox Green (MDA-MB-453): 2820 nM; EC50, CellTox Green (Hs578T [34]): > 10000 nM; normalised viability (BT-474 [21]; 1000 nM): 111%; normalised viability (DU-4475 [33]; 30 nM): 104% and 85.4%
COc1ccccc1S(=O)(=O)Nc1ccc2c(c1)CN(C)C(=O)N2 [PFI-1] | – | – | – | – | – | – | – | – | – | – | – | – | – | – | 3190 nM | – | 2670 nM | – | – | – | EC50, CellTox Green (CAL-85-1 [23]): 9560 nM
